We go through 8 compounds from article PMC10812467, “Peroxidasin Inhibition by Phloroglucinol and Other Peroxidase Inhibitors” (Antioxidants, 2023).

The subject of assay [1] is collagen IV NCD sulfilimine cross-link formation in isolated ECM from PFHR9 cells. The assay can be described thus: Inhibition of collagen IV cross-linking in decellularized extracellular matrix. Format: biochemical. The conditions noted are these: 100 μM bromide, 100 μM hydrogen peroxide, 1 h 37 °C, Western blot densitometry, read-out: IC50 DECM. As to the method: (§1) PFHR9 cells (ATCC) were grown in Dulbecco’s Modified Eagle Medium (Gibco), supplemented with 10% heat-inactivated foetal bovine serum (Moregate) and 1% Penicillin Streptomycin (Gibco). As described previously, cells were seeded in 150 mm cell culture dishes and ECM was isolated. The concentration of the isolated ECM protein was measured (Direct Detect) and the yield was typically ~5 mg per dish. […] After 10 min, 100 μM bromide was added and the cross-link formation was started by adding 100 μM hydrogen peroxide. After 1 h at 37 °C, the reaction was stopped, by adding 1 mM sodium azide, and ECM was digested with 2 mg mL^−1 of collagenase type I (Worthington) for 48 h at 37 °C. The digest was spun (20 kg, RT, 20 min) and the extent of cross-linking of the NCD of collagen IV was determined by the resolution of the supernatant protein on a 12% sodium dodecyl-sulfate polyacrylamide gel electrophoresis (SDS-PAGE). […] Densitometric analyses of both dimer bands (Alliance Uvitec Cambridge imager) were used to determine the extent of inhibition of the cross-link formation. […] Once full confluence was reached, the medium was changed daily, and inhibitors were added at the indicated concentrations in 1 mL of medium for 7 days.
A general note: Immunoblotting shows a protein as a band on a membrane.

The test system of assay [2] is collagen IV NCD sulfilimine cross-link formation of PFHR9 cells. The assay can be described thus: Inhibition of collagen IV cross-linking in cell culture. Format: cell-based. Conditions: PFHR9 cells grown with inhibitor for 7 days, Western blot densitometry, n.a. = 50% inhibition not reached. As to the method: as §1
The target of a further assay is T1, PXDN Compound I (Homo sapiens, UniProt Q92626).
T1 construct: the four immunoglobulin domains and the peroxidase domain (amino acid residue 246-1314); made in house; host or cells: transient transfection
T1 sequence (Q92626 246-1314): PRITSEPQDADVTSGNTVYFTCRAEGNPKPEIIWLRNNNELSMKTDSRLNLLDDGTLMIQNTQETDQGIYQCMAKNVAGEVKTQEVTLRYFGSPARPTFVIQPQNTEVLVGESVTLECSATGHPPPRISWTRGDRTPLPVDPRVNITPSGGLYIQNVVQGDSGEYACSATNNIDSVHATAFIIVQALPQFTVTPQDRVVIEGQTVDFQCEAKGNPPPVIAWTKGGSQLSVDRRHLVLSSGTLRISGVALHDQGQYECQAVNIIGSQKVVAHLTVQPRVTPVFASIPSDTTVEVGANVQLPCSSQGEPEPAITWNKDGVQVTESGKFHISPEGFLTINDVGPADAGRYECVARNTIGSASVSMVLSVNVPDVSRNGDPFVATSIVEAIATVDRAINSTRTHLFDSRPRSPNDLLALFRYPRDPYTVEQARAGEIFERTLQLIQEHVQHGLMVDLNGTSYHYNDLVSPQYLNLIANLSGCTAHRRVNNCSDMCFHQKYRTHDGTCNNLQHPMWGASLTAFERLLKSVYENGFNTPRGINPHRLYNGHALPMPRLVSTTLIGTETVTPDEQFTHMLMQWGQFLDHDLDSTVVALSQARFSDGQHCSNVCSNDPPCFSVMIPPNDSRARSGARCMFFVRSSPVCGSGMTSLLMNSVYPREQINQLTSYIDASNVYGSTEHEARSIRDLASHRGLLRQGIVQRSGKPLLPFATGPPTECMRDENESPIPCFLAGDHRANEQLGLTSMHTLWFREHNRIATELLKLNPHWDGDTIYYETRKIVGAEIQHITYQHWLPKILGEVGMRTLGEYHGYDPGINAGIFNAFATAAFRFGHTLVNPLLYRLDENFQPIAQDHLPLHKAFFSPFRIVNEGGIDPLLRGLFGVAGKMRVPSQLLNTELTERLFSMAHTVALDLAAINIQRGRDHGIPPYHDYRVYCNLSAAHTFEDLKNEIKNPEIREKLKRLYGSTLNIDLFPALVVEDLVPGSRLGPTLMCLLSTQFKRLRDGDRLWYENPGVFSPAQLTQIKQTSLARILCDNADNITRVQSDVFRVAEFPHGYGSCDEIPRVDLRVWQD
In words: Sequential stopped-flow spectroscopy of PXDN Compound I with inhibitors. It counts as biochemical. Conditions: 1 μM PXDN Compound I, pH 7.4, 25 °C. How it is done: Pre-steady-state spectra were recorded with the stopped-flow apparatus SX.18MV (Applied Photophysics Ltd, Leatherhead, UK) connected to a diode array detector (DAD), with the first spectrum recorded 14 ms after the mixing of the reactants. Due to the inherent instability of Compound I of PXDN, the sequential mixing mode was used to generate Compound I. Equal volumes of 4 μM PXDN and 4 μM hydrogen peroxide were mixed in the aging loop. […] Interconversion of redox intermediates of PXDN was monitored for 60 s. […] All reactions were performed in 100 mM phosphate buffer, pH 7.4, and at 25 °C. Time traces (410 nm to monitor Compound I and ferric PXDN, 432 nm for Compound II and 550 and 590 nm to monitor Compound III [46]) were extracted from the time-resolved spectra.

The target in assay [3] is T2, Human peroxidasin (PXDN) (Homo sapiens, UniProt Q92626).
T2 construct: the four immunoglobulin domains and the peroxidase domain (amino acid residue 246-1314); made in house; host or cells: transient transfection
T2 sequence (Q92626 246-1314): T1 sequence (Q92626 246-1314)
In words: Amplex oxidation activity assay in the absence of bromide. It counts as biochemical. How it is done: (§2) A previously characterized truncated peroxidasin variant, formerly annotated as hsPxd01-con4 [46], consisting of the four immunoglobulin domains and the peroxidase domain (amino acid residue 246-1314; numbering refers to full length PXDN including the signal peptide as shown in Uniprot Q92626), was used for all experiments using PXDN protein. Cloning, transient transfection, expression and the quality control of the purified recombinant PXDN was performed routinely, as described previously. Molar concentrations are per heme and were determined using an extinction coefficient of 147,500 M^−1 cm^−1 for the heme Soret peak at 412 nm. For the conversion to mg, a molar mass of 140,000 g mol^−1 was used and calculated from the molar concentration per heme. For simplicity we will refer to this variant as peroxidasin (PXDN) throughout the manuscript.
(§3) 100 µL of 50 μM Amplex™ UltraRed and 20 μM hydrogen peroxide in 50 mM phosphate buffer pH 7.4 and the respective inhibitor at twice of its final concentration was added to a 96-well plate. […] The plate was incubated in the dark for 15 min at 37 °C before the fluorescence of resorufin, the resulting Amplex oxidation product, was detected using a SpectraMax iD3 fluorescent plate reader from Molecular Devices LLC, San Jose, CA 95134 (λex 544 nm, λem 590 nm, end point measurement). The same assay was also performed with 50 mM bromide present. To determine IC50 values, Amplex oxidation (measured as the end point as described above) was plotted versus the concentration of the inhibitor and expressed as % inhibition.

Assay [4] concerns the target T2, Human peroxidasin (PXDN). In words: Amplex oxidation activity assay in the presence of bromide. It counts as biochemical. As to the method:
as §2, §3

Assay [5] concerns the target T2, Human peroxidasin (PXDN). The assay can be described thus: Reversibility of inactivation of immobilized PXDN (wash, then Amplex assay). The conditions noted are these: 10 min, washed four times. Format: biochemical. How it is done: 200 ng of PXDN in 50 μL PBS was added per well of a Corning high-binding ELISA microplate for 2 h at room temperature. After four PBS washes, the respective inhibitors were added at a final concentration of 20 μM in phosphate buffer pH 7.4, before 10 μM of hydrogen peroxide was added in a final volume of 50 μL. In a control experiment, no hydrogen peroxide was added. After 10 min of incubation, the plates were washed four times with PBS and activity was measured as previously described, by adding 50 μL/well of 50 μM Amplex™ UltraRed Reagent, 20 μM hydrogen peroxide and 50 mM bromide in 50 mM phosphate buffer pH 7.4. The plate was incubated for 30 min in the dark at 37 °C before fluorescence was measured (λex 544 nm, λem 590 nm) and expressed as % activity of the untreated control.

For assay [6], the target named is T2, Human peroxidasin (PXDN). In words: Dansylglycine halogenation (bromination) activity assay. It counts as biochemical. The conditions noted are these: 50 nM PXDN, 100 mM bromide. How it is done: as §2
Dansylglycine (DG) was made up fresh every day and kept in the dark at room temperature. […] We mixed 50 nM PXDN in 100 mM phosphate buffer pH 7.4 with 50 μM DG and 100 mM bromide, before the reaction was started by adding 200 μM of hydrogen peroxide to a final volume of 1.5 mL. Loss of fluorescence was monitored for 60 s using a F-7000 Hitachi (Methrom-Inula, Vienna) fluorometer (λex 340 nm, λem 550 nm). […] The loss of fluorescence was fitted linearly to determine the rate of reaction (min^−1). The effect of the inhibitors was expressed as % inhibition, relative to the rate of the halogenation activity of PXDN without an inhibitor. IC50 values were determined by varying inhibitor concentrations (0–48 μM).

Assay [7] deals with collagen IV cross-link formation by PXDN. Also noted: method as in PMID 22842973. Conditions: cited from earlier work.

Usually IC50 stands for the concentration at which inhibition is half-maximal. As usually defined, the inhibition is the relative decrease from the control value, in per cent.

On to `O=C(O)CNc1ccc(Cl)cc1` [Cl-PAAA, (2-[(4-chlorophenyl)amino]-acetic acid)], for which, in assay [1], the IC50 worked out at 3.7 µM. In addition, the “IC50 Cells” value in assay [2] is on record as “toxic”.

As to `NNC(=O)CNc1ccc(Cl)cc1` [Cl-PAAH, (2-[(4-chlorophenyl)amino]-acetohydrazide)], the concentration for half-maximal inhibition (IC50) was 12.7 µM in assay [1] and roughly 172 µM in assay [2] (168 h).

Consider `NCCc1ccc(O)c(O)c1` [Dopamine], for which, on PXDN Compound I, the “Mechanism or Reaction Steady and Pre-Steady State Spectrophotometry” value is “Good substrate for CI and CII”. On Human peroxidasin (PXDN) [3], this compound showed a half-maximal inhibitory concentration (IC50) of 0.01 µM. Also, the inhibition at 20 µM at Human peroxidasin (PXDN) [4] (20 μM inhibitor, 50 mM bromide) fell in the range of 25 to 70%.

As for `NNC(=O)CNc1ccccc1F` [F-PAAH, 2-[(2-fluorophenyl)amino]-acetohydrazide], on PXDN Compound I, the “Mechanism or Reaction Steady and Pre-Steady State Spectrophotometry” value is on record as “forms Compound III”. Also, the half-inhibitory concentration (IC50) in assay [1] is 155 µM; against Human peroxidasin (PXDN) [3], 2.4 µM; on Human peroxidasin (PXDN) [4] it was 0.9 µM. Moreover, on Human peroxidasin (PXDN) [5] (20 μM inhibitor, then Amplex assay), the “Irreversible Inhibition” value is listed as “no”. Also, the “inhibition of PXDN remaining after washing” value on Human peroxidasin (PXDN) [5] (immobilized PXDN, 20 μM inhibitor without or with 10 μM hydrogen peroxide) is “no statistically significant difference”. In addition, the inhibition at 20 µM at Human peroxidasin (PXDN) [4] (20 μM inhibitor, 50 mM bromide) amounted to 90%. Besides, the “IC50 Cells” value in assay [2] was “ineffective”.

Consider `COc1ccc2c(C)nc(N=C(N)N)nc2c1` [Quinazoline, 2-(7-methoxy-4-methylquinazoline-2-yl)guanidine], for which the “Mechanism or Reaction Steady and Pre-Steady State Spectrophotometry” value on PXDN Compound I was “Good substrate for CI and CII”. This compound had an IC50 against Human peroxidasin (PXDN) [3] of 0.2 µM. Besides, the inhibition at 20 µM at Human peroxidasin (PXDN) [4] (20 μM inhibitor, 50 mM bromide) lay within 25 to 70%.

Regarding `CSc1ccc2c(c1)N(CCC1CCCCN1C)c1ccccc1S2` (stereo not shown) [Thioridazine], the inhibition at 24 µM on Human peroxidasin (PXDN) [6] (24 μM inhibitor, 50 μM DG, 200 μM hydrogen peroxide, pH 7.4) fell in the range of 97 to 99%. Besides, the IC50 on Human peroxidasin (PXDN) [6] (inhibitor 0–48 μM, read-out: IC50 Halogenation Dansylglycin) amounted to 1.8 µM. Moreover, the “Mechanism or Reaction Steady and Pre-Steady State Spectrophotometry” value at PXDN Compound I is given as “Good substrate for CI, not a substrate for CII”. Besides, the “enhancement of Amplex oxidation” value at Human peroxidasin (PXDN) [3] (20 μM compound, without bromide) is “about 50%”. Moreover, on Human peroxidasin (PXDN) [4] (20 μM inhibitor, 50 mM bromide), the “inhibition of Amplex oxidation in the presence of bromide” value was “neither activation of Amplex oxidation, nor much inhibition”.

Turning to `Cn1cc[nH]c1=S` [methimazole], the “inhibition of collagen IV cross-link formation by PXDN” value in assay [7] is given as “potently inhibits”.

“(E)-2-methoxy-4-((2-phtalazine-1yl)hydrazono)methyl)phenol [Hydralazine-vanillin]”: the “Mechanism or Reaction Steady and Pre-Steady State Spectrophotometry” value at PXDN Compound I was “good peroxidation substrates”.
